{"source": "patent US20090311349A1", "about": "“METHOD OF QUANTIFICATION OF MULTIPLE BIOACTIVES FROM BOTANICAL COMPOSITIONS” (priority 2008, published 2009)", "key": {"[1]": {"tested_on": "uterine horn", "assay": "Uterine horn mass, control vs DES vs MF101", "type": "in vivo", "description": "(§1) In a similar experiment, the effect of MF101 on breast cancer cells was compared to that of diethylstilbestrol (DES). […] FIGS. 3G and 3H show the effect of control, DES and MF101 on a breast cancer graft mass (FIG. 3G) and a uterine horn mass (FIG. 3H)."}, "[2]": {"tested_on": "breast cancer graft", "assay": "Breast cancer graft growth, control vs DES vs MF101", "type": "in vivo", "description": "as §1"}, "[3]": {"tested_on": "U2OS-ERα cells", "assay": "Affymetrix U95Av2 microarray, U2OS-ERα cells", "type": "cell-based, human", "procedure": "(§2) To identify genes regulated by ERα and/or ERβ, the U2OS-ERα and U2OS-ERβ cell lines were treated with doxycycline for 18 h in the absence or presence of 10 nM E2. Total RNA was used to prepare cRNA for hybridization with the human U95Av2 Affymetrix microarrays, which contain 12,600 known genes. Six sets of comparative expression data of untreated vs. each treated group were used to determine the genes regulated in ERα or ERβ cells.\n(§3) Microarray data obtained from human Affymetrix U95Av2 gene chips from untreated vs. ligand-treated samples were analyzed using the Affymetrix Microarray Suite Version 5.0. Candidate genes displaying a statistically significant (p<0.05) increase or decrease signal changes relative to controls in at least three experiments were further selected by a ±0.8 signal log ratio mean cut-off. […] Fold-changes in the U2OS-ERα and U2OS-ERβ samples (in parentheses) were calculated relative to the untreated samples."}, "[4]": {"tested_on": "U2OS-ERα and U2OS-ERβ cell lines", "assay": "Affymetrix U95Av2 microarray, both U2OS-ERα and U2OS-ERβ cell lines", "type": "cell-based, human", "conditions": "for genes Activated, α + β / genes Repressed, α + β: 10 nM E2 or 1 μM tamoxifen", "procedure": "as §2, §3"}, "[5]": {"tested_on": "MCF-7 cells", "assay": "[3H] thymidine incorporation in adenovirus-infected MCF-7 cells", "type": "cell-based, human", "conditions": "presence of E2; 10 days", "procedure": "To investigate the role of ERα in breast cancer, the effects of E2 on cell proliferation in MCF-7 cells that express only ERα were studied. […] (An, supra, 2001). […] To investigate the role of ERβ on the proliferation of breast cancer cells, an adenovirus (Ad) was used to deliver ERβ into a high percentage of cells. MCF-7 cells were infected for 24 h with Ad-ERβ or Ad-LacZ to control for potential non-specific effects of the virus. The infected cells were grown for 10 days in the absence or presence of E2, after which DNA synthesis was measured by [3H] thymidine incorporation in vitro. […] E2 augmented the inhibition of cell proliferation to 70% in the Ad-ERβ-infected cells. Similar results were observed using 100 multiplicity of infection (MOI) of Ad-ERβ. The observation that the inhibition of cell proliferation by ERβ was predominantly ligand-independent may result from residual E2 in stripped serum or retained in cells infected with ERβ, or unliganded properties of […]."}, "[6]": {"tested_on": "U2OS-ERβ cells", "assay": "Affymetrix U95Av2 microarray, U2OS-ERβ cells", "type": "cell-based, human", "procedure": "as §2, §3"}, "[7]": {"tested_on": "U2OS-ERβ cells", "assay": "Affymetrix U95Av2 microarray, U2OS-ERβ cells", "type": "cell-based, human", "conditions": "1 μM raloxifene, 18 h"}, "[8]": {"molecular_target": "T1, human ERβ (Homo sapiens, UniProt Q92731)", "T1 construct": "expressed in transfected cells; host or cells: U2OS osteosarcoma cells", "T1 sequence (Q92731 whole entry)": "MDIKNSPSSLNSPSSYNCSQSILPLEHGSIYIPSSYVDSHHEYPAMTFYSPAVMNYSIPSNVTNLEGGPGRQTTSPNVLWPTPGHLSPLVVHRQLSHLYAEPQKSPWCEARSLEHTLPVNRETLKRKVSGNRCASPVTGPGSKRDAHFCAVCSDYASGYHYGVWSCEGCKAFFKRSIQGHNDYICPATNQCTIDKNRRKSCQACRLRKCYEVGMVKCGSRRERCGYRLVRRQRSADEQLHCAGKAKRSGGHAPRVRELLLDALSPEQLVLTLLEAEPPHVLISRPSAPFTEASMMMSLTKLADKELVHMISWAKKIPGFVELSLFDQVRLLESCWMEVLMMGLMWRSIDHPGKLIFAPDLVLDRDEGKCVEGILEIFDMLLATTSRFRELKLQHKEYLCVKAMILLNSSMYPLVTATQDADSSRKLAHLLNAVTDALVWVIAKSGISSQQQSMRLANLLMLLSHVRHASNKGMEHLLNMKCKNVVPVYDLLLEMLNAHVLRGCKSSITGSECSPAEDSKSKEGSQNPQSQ", "assay": "ERE-tk-Luc reporter activation in U2OS cells transfected with ERβ", "type": "cell-based", "conditions": "activation by MF101 (MF101 and estradiol)"}, "[9]": {"tested_on": "U2OS-ERα and U2OS-ERβ cell lines", "assay": "Affymetrix U95Av2 microarray, both U2OS-ERα and U2OS-ERβ cell lines", "type": "cell-based, human"}, "[10]": {"tested_on": "U2OS-ERα cells", "assay": "Affymetrix U95Av2 microarray, U2OS-ERα cells", "type": "cell-based, human", "conditions": "1 μM raloxifene, 18 h"}, "[11]": {"tested_on": "U2OS-ERα cells", "conditions": "1 μM raloxifene, 18 h, relative to untreated"}, "[12]": {"tested_on": "U2OS-ERβ cells", "conditions": "1 μM raloxifene, 18 h, relative to untreated"}, "[13]": {"conditions": "10 nM E2, 1 μM raloxifene or 1 μM tamoxifen, 18 h"}, "[14]": {"conditions": "1 μM raloxifene or 1 μM tamoxifen, 18 h"}}, "note": "Marks after values point to notes of the source that are not given here."}
{"smiles": "CC/C(=C(/CC)c1ccc(O)cc1)c1ccc(O)cc1", "note": "[DES, diethylstilbestrol]", "values": [{"measurement": "uterine horn growth (mass)", "setting": "[1]", "result": "substantial increase"}, {"measurement": "growth of xenograft (breast cancer graft mass)", "setting": "[2]; vs control", "result": "substantial increase"}, {"measurement": "proliferation of breast cancer cells (FIGS. 3D-3F)", "setting": "[2]; vs control-treated", "result": "proliferation-stimulating effect"}]}
{"smiles": "C[C@]12CC[C@@H]3c4ccc(O)cc4CC[C@H]3[C@@H]1CC[C@@H]2O", "note": "[estradiol]", "values": [{"measurement": "genes regulated only in the U2OS-ERα cells", "setting": "[3]; 10 nM E2", "result": 65, "unit": "genes"}, {"measurement": "genes Activated, α only", "setting": "[3]; [13]", "result": 33, "unit": "genes"}, {"measurement": "genes Repressed, α only", "setting": "[3]; [13]", "result": 32, "unit": "genes"}, {"measurement": "share of genes regulated by both ERα and ERβ", "setting": "[4]; 10 nM E2", "result": 17, "unit": "%"}, {"measurement": "genes regulated in U2OSα and U2OSβ cell lines", "setting": "[4]; 10 nM E2, 1 μM raloxifene or 1 μM tamoxifen, 18 h, p<0.05, listed as E2", "result": 228, "unit": "genes"}, {"measurement": "genes regulated by both ERα and ERβ", "setting": "[4]; 10 nM E2, of the 228", "result": 38, "unit": "genes"}, {"measurement": "genes Activated, α + β", "setting": "[4]; 18 h", "result": 34, "unit": "genes"}, {"measurement": "genes Repressed, α + β", "setting": "[4]; 18 h", "result": 4, "unit": "genes"}, {"measurement": "inhibition of cell proliferation in Ad-ERβ-infected MCF-7 cells", "setting": "[5]", "result": 70, "unit": "%"}, {"measurement": "genes regulated only in the U2OS-ERβ cells", "setting": "[6]; 10 nM E2", "result": 125, "unit": "genes"}, {"measurement": "genes Activated, β only", "setting": "[6]; [13]", "result": 87, "unit": "genes"}, {"measurement": "genes Repressed, β only", "setting": "[6]; [13]", "result": 38, "unit": "genes"}]}
{"smiles": "O=C(c1ccc(OCCN2CCCCC2)cc1)c1c(-c2ccc(O)cc2)sc2cc(O)ccc12", "note": "[raloxifene]", "values": [{"measurement": "genes Activated, α only", "setting": "[3]; [13]", "result": 10, "unit": "genes"}, {"measurement": "genes Activated, α only, relative percentage", "setting": "[3]; [13]", "result": "(5.3%)"}, {"measurement": "genes Repressed, α only", "setting": "[3]; [13]", "result": 10, "unit": "genes"}, {"measurement": "genes Repressed, α only, relative percentage", "setting": "[3]; [13]", "result": "(5.3%)"}, {"measurement": "Mean signal log ratio ± S.E., NKG2C (β)", "setting": "[7]", "result": "−5.20 ± 0.08"}, {"measurement": "blockade of ERE-tk-Luc activation through ERβ", "setting": "[8]", "result": "blocked"}, {"measurement": "common genes with opposite expression patterns (*), relative percentage", "setting": "[9]; [14]", "result": "(8.9%)"}, {"measurement": "common genes with opposite expression patterns in ERα compared to ERβ cells (*)", "setting": "[9]; [14]", "result": "17* genes"}, {"measurement": "genes Activated, β only", "setting": "[6]; [13]", "result": 52, "unit": "genes"}, {"measurement": "genes Activated, β only, relative percentage", "setting": "[6]; [13]", "result": "(27.4%)"}, {"measurement": "genes Repressed, β only", "setting": "[6]; [13]", "result": 101, "unit": "genes"}, {"measurement": "genes Repressed, β only, relative percentage", "setting": "[6]; [13]", "result": "(53.2%)"}, {"measurement": "Mean signal log ratio ± S.E., NKG2C (α)", "setting": "[10]", "result": "2.40 ± 0.82"}, {"measurement": "Fold-change by real-time PCR, NKG2C (α)", "setting": "[11]", "result": 7.54, "unit": "fold"}, {"measurement": "Fold-change by real-time PCR, NKG2C (β)", "setting": "[12]", "result": 0.36, "unit": "fold"}]}
{"smiles": "CC/C(=C(\\c1ccccc1)c1ccc(OCCN(C)C)cc1)c1ccccc1", "note": "[tamoxifen]", "values": [{"measurement": "genes Activated, α only", "setting": "[3]; [13]", "result": 21, "unit": "genes"}, {"measurement": "genes Repressed, α only", "setting": "[3]; [13]", "result": 38, "unit": "genes"}, {"measurement": "genes Activated, α + β", "setting": "[4]; 18 h", "result": 1, "unit": "genes"}, {"measurement": "genes Repressed, α + β", "setting": "[4]; 18 h", "result": 9, "unit": "genes"}, {"measurement": "share of genes regulated by tamoxifen also regulated by raloxifene", "setting": "[9]", "result": 27, "unit": "%"}, {"measurement": "common genes with opposite expression patterns in ERα compared to ERβ cells (*)", "setting": "[9]; [14]", "result": "12* genes"}, {"measurement": "genes Activated, β only", "setting": "[6]; [13]", "result": 26, "unit": "genes"}, {"measurement": "genes Repressed, β only", "setting": "[6]; [13]", "result": 129, "unit": "genes"}]}
